Measured values from US11547842B2, “Methods for cancer treatment” (The Board of Trustees of the Leland Stanford Junior …, priority 2013, dated 2023).
Like-named read-outs stand apart in the source and are kept apart here.

Key:
mycosis fungoides [1] = assay: Therapy history of patient 3 before SD-101 (clinical response, tolerability)
mycosis fungoides [2] = settings: human, in vivo

Compound	reason the therapy was stopped (toxicity) (mycosis fungoides [1])	response to therapy (mycosis fungoides [1]; Zolinza with 12 Gy TSEBT, Targretin 300 mg daily, SGN-35 clinical trial)	reason the therapy was stopped (toxicity) (mycosis fungoides [2])
C=C(c1ccc(C(=O)O)cc1)c1cc2c(cc1C)C(C)(C)CCC2(C)C [Targretin]	hypertriglyceridemia	partial response in the skin	–
SGN-35: agent of the SGN-35 clinical trial in which patient 3 participated	–	–	too much toxicity
